# Results published in US8883165B2, “Modified peptide vaccine derived from influenza M2” (The Chemo-Sero-Therapeutic Research Institute, priority 2009, dated 2014).
# Several values for one entry are separate records, joined by “and”; a condition that tells them apart may be missing. Equal entries are not always repeated. Entries after “also recorded” stand apart in the source; their conditions may differ.
# System: M2e
# Set-up: species or system BALB/c mice
# Details: mouse, in vivo, sc
row,Sequence,"anti-M2e antibody titer, comparison in words"
1,SLLTEVETPIRNECWCGCRCNCDSSD [M2eC151621],antibody titer comparable to M2e
2,SLLTEVETPIRNEWCGCRCNCDCSCSCD [M2eC1621222324],higher than that of M2eC162122
3,SLLTEVETPIRNEWCGCRCNCDCSCSD [M2eC16212223],higher than that of M2eC162122
4,SLLTEVETPIRNEWCGCRCNCDCSSD [M2eC162122],higher antibody titer than that of M2e
5,SLLTEVETPIRNEWCGCRCNCDSSD [M2eC1621],increased anti-M2e antibody titer than M2eC21
6,SLLTEVETPIRNEWGCRCNCCCDSSD [M2eC212121],induced a high anti-M2e antibody titer
7,SLLTEVETPIRNEWGCRCNCDCSCSCD [M2eC21222324],higher than that of M2eC212223
8,SLLTEVETPIRNEWGCRCNCDCSCSD [M2eC212223],higher antibody titer than that of M2e
9,SLLTEVETPIRNEWGCRCNCDCSSD [M2eC2122],increased anti-M2e antibody titer than M2eC21
10,SLLTEVETPIRNEWGCRCNCDSCSD [M2eC2123],increased anti-M2e antibody titer than M2eC21

# System: Influenza virus (A/PR8/8/34 strain, H1N1)
# Type: in vivo, BALB/c mice
# Details: mouse, in vivo
row,Sequence,Survival rate
1,SLLTEVETPTRSEWECRCSCDCSCSD [swM2eC212223],9/9 and 7/8

# System: M2e
# Set-up: species or system BALB/c mice
# Details: mouse, in vivo
row,Sequence,anti-M2e antibody titer just before challenge
1,SLLTEVETPIRNEWGCRCNCDCSCSD [M2eC212223],could induce a high anti-M2e antibody titer

# System: M2e
# Set-up: species or system BALB/c mice
# Details: mouse, in vivo
# Remark: another data set of the same source
row,Sequence,anti-M2e antibody titer immediately before challenge
1,SLLTEVETPTRSEWECRCSCDCSCSD [swM2eC212223],the highest; also recorded: high anti-M2e antibody titer
